Results as given in patent publication US10301629B2, “Structure, manufacturing and uses of human-derived cell-permeable peptides conjugated with specific biologically active cargo peptides” (priority 2013, dated 2019).

System: cytokine response to LPS
Assay: Mouse endotoxin (LPS) challenge, peptide pretreatment 30 minutes prior, plasma cytokines
Details: peptide 500 micrograms per mouse, dexamethasone 3 mg/kg, PPL-002 p<0.01
Procedure: The ability of peptide pretreatment to inhibit the inflammatory cytokine response or stimulate the anti-inflammatory cytokine response to LPS was determined 2 hours after LPS injection (FIG. 10).
Peptides were dosed both i.p. and i.v. at 500 micrograms per mouse (10 mg/kg) 30 minutes prior to challenge by injection of endotoxin (LPS) at a dose of 50 micrograms/kg.

C[C@@H]1C[C@H]2[C@@H]3CCC4=CC(=O)C=C[C@]4(C)[C@@]3(F)[C@@H](O)C[C@]2(C)[C@@]1(O)C(=O)CO [Dexamethasone, dexamethasone, reference compound]
IL-10 level after LPS challenge, i.p. pretreatment: no effect
